# Results published in US20200276181A1, “THIENOISOQUINOLINES AND THEIR DERIVATIVES FOR TARGETING TUBULIN, CH-TOG, AURORA A KINASE, TPX2, CDK5RAP2 AND/OR ASPM” (VALORBEC, SEC, priority 2017, published 2020).
# Tests used:
# Format in all cases: cell-based
# HCT116 cells = assay: Spindle phenotypes, fixed cells stained for γ-tubulin and ACA; conditions: 300 nM for 4 hours
# Description: (§1) For each condition, 20,000 cells were counted per replicate (N=3). Line graphs (right) were made to better illustrate the relative changes in the cell cycle phases for the different treatments. Bars show standard deviation. The asterisks indicate the first statistically significant change in the G0/G1 and G2/M populations determined by a two-way ANOVA with a post-hoc Tukey's multiple comparisons test using 95% confidence intervals. FIG. 2B) is a line graph showing the percentage of HCT116 (p53−/−) cells, A549 cells, HeLa cells and H1299 cells in mitosis after treatment with various concentrations of C75 for one population doubling time. All of the cell lines show an increase in the proportion of mitotic cells after treatment with 200 nM C75. The bars indicate standard deviation. […] While the mitotic spindles were not dramatically altered by C75 in HFF1 cells, they were monopolar (as shown) or fragmented in the other cell types. […] The mitotic spindles were more strongly fragmented after C75 treatment in these cells vs. the cells in FIG. 2C). FIG. 2E) are images showing fixed HFF1, HeLa, A549 and HCT 116 cells co-stained for γ-tubulin (spindle poles; white) and ACA (centromeres; light grey) 4 hours after treatment with 300 nM C87 (control) or 300 nM C75. Cartoon schematics show examples of the different spindle phenotypes, including bipolar with aligned chromosomes (top), bipolar with misaligned chromosomes (upper middle), multipolar/fragmented (lower middle), or monopolar (bottom), and the proportion of that phenotype is shown in the top right corner of each image. FIG. 2F) is a bar graph showing the proportion of the different spindle phenotypes for HFF1, HeLa, A549 and HCT 116 cells treated as in FIG. 2E) (n=1355; N=3). Bars show standard deviation. […] While mitotic spindles recovered bipolarity after removing nocodazole, they remained multipolar after removing C75. […] FIG. 2J) is a bar graph showing the proportion of cells with monopolar (black), bipolar (dark grey) or multipolar (light grey) spindles. Bars show standard deviation. FIG. 2K) is a series of time-lapse images of a live HeLa cell expressing GFP:tubulin after treatment with C75 as shown in 2G). […] Drugs were not washed out. […]
# (§2) C75 was also tested for efficacy in different cancer cell lines. […] To further assess the role of C75 in disrupting spindles, HeLa cells were treated with 300 nM C75 for 4 hours and the spindle phenotypes were analyzed in more detail (FIG. 2E). […] To assess the affect of C75 on centrosomes, HeLa cells were treated with C75 or nocodazole (a drug that causes microtubule depolymerization as a control) for a short period of time (5 minutes), then the drugs were removed and the cells were analyzed for spindle phenotypes (schematic in FIG. 2G). […]
# HFF-1 cells = assay: as above; conditions: 300 nM for 4 hours
# Description: as §1, §2
# [1] = tested on: HCT116 cells with lower levels of endogenous MCAK (MCAK RNAi); assay: Spindle phenotypes with MCAK RNAi; conditions: 300 nM C75
# Procedure: FIG. 9A) is a series of images of HCT116 cells with lower levels of endogenous MCAK (MCAK RNAi), stained for DAPI (DNA) and tubulin (microtubules), and treated with 300 nM C75 or control. FIG. 9B) is a bar graph showing the proportion of spindle phenotypes in HCT116 cells treated as in 9A). The multipolar spindle phenotypes caused by C75 are suppressed by MCAK RNAi.
# It was observed that the proportion of multipolar spindles caused by C75 are decreased after MCAK depletion.
compound,measurement,setting,value
COc1ccc(S(=O)(=O)N2Cc3ccccc3-c3sc(Br)cc32)cc1 [Compound C75],cells with bipolar spindles with misaligned chromosomes,HCT116 cells,22%
same,cells with monopolar spindles,HCT116 cells,35%
same,cells with multipolar or fragmented spindles,HCT116 cells,13%
same,cells with bipolar spindles with aligned chromosomes,HFF-1 cells,88%
same,suppression of multipolar spindle phenotypes by MCAK RNAi,[1],suppressed
